Test results reported in ChEMBL document CHEMBL5523751, “Discovery of Novel Diaryl-Substituted Fused Heterocycles Targeting Katanin and Tubulin with Potent Antitumor and Antimultidrug Resistance Efficacy” (J Med Chem, 2024).
pIC50: −log10 of the molar value. Converted amounts (≈) assume the structure as drawn. The source made the active and inactive calls. The calls are words filed in the database; no cut-off is given here.

Tests used:
[1] = MRT (0 to infinity) in mouse at 15 mg/kg, po measured upto 24 hrs by LC-MS/MS analysis; assay type: ADME, organism-based; conditions: in vivo
[2] = tested on: MDA-MB-231; test: Inhibition of cell migration in human MDA-MB-231 cells assessed as delay in wound healing at 10 to 20 nM by inverted microscopy based analysis; assay type: functional; conditions: dose 10-20 nM
[3] = AUC (0 to t) in mouse at 15 mg/kg, po measured upto 24 hrs by LC-MS/MS analysis; assay type: ADME, organism-based; conditions: in vivo
[4] = Acute toxicity in ICR mouse assessed as animal death at 50 mg/kg, ip measured after upto 14 days; assay type: organism-based; conditions: in vivo, 336 h, time < 14 day
[5] = Toxicity in Balb/C nude mouse xenografted with A549/Taxol assessed as effect on liver at 15 mg/kg, ip measured after 14 days by H and E staining based analysis; assay type: organism-based, A549/TR; conditions: in vivo, 336 h, time 14 day
[6] = tested on: HUVEC; test: Anti-angiogenesis activity in human HUVEC cells assessed as disruption of capillary tube formation at 60 nM incubated for 6 hrs by inverted microscopic analysis relative to control; assay type: functional
[7] = tested on: MDA-MB-231; test: Antitumor activity against human MDA-MB-231 cells xenografted in BALB/c nude mouse model assessed as inhibition of tumor growth volume administered as IP dose measured after 14 days; assay type: functional; conditions: dose 7.5-15 mg/kg, time 14.0 day
[8] = tested on: MCF7; test: Antiproliferative activity against human MCF7 cells assessed as inhibition of cell growth measured after 48 hrs by MTT assay; assay type: functional, cell-based; conditions: MCF7, 48 h
[9] = tested on: MCF7; test: Induction of apoptosis in human MCF7 cells assessed as late apoptotic cells at 10 nM measured after 48 hrs by annexin-FITC and propidium iodide staining based flow cytometry analysis (reference value: 3.93%); assay type: functional
[10] = MRT (0 to t) in mouse at 15 mg/kg, po measured upto 24 hrs by LC-MS/MS analysis; assay type: ADME, organism-based; conditions: in vivo
[11] = Water solubility of the compound at pH 7.4 by HPLC analysis; assay type: physicochemical
[12] = Toxicity in Balb/C nude mouse assessed as abnormalities in spleen at 7.5 to 15 mg/kg, ip measured after 14 days by H and E staining based analysis; assay type: organism-based; conditions: in vivo, 336 h, dose 7.5-15 mg/kg, time 14 day
[13] = tested on: MDA-MB-231; test: Antitumor activity against human MDA-MB-231 cells xenografted in BALB/c nude mouse model assessed as increase in tumor necrosis at 7.5 to 15 mg/kg, ip measured after 14 days by H and E staining based analysis; assay type: functional, organism-based; conditions: dose 7.5-15 mg/kg, time 14.0 day
[14] = Acute toxicity in ICR mouse assessed as survival rate at 300 mg/kg, ip measured after 14 days relative to control; assay type: organism-based; conditions: in vivo, time 14 day
[15] = tested on: SK-OV-3; test: Antiproliferative activity against human SK-OV-3 cells assessed as inhibition of cell growth measured after 48 hrs by MTT assay; assay type: functional, cell-based; conditions: SK-OV-3, 48 h
[16] = Cmax in mouse at 3 mg/kg, iv measured upto 24 hrs by LC-MS/MS analysis; assay type: ADME, organism-based; conditions: in vivo
[17] = Antiproliferative activity against cisplatin resistant human A2780/CDDP cells assessed as inhibition of cell growth measured after 48 hrs by MTT assay; assay type: functional, cell-based
[18] = Resistance index, ratio of IC50 for antiproliferative activity against paclitaxel resistant human A2780/Taxol cells to IC50 for antiproliferative activity against human A2780 cells; assay type: functional
[19] = tested on: MCF7; test: Induction of apoptosis in human MCF7 cells assessed as early apoptotic cells at 40 nM measured after 48 hrs by annexin-FITC and propidium iodide staining based flow cytometry analysis (reference value: 1.20%); assay type: functional
[20] = tested on: MDA-MB-231; test: Downregulation of MMP-9 expression in human MDA-MB-231 cells at 5 to 40 nM by Western blot analysis; assay type: functional, cell-based; conditions: dose 5-40 nM
[21] = Toxicity in Balb/C nude mouse assessed as abnormalities in kidney at 7.5 to 15 mg/kg, ip measured after 14 days by H and E staining based analysis; assay type: organism-based; conditions: in vivo, 336 h, dose 7.5-15 mg/kg, time 14 day
[22] = Half life in mouse at 15 mg/kg, po measured upto 24 hrs by LC-MS/MS analysis; assay type: ADME, organism-based; conditions: in vivo
[23] = Toxicity in Balb/C nude mouse xenografted with A549/Taxol assessed as effect on lung at 15 mg/kg, ip measured after 14 days by H and E staining based analysis; assay type: organism-based, A549/TR; conditions: in vivo, 336 h, time 14 day
[24] = Antiproliferative activity against human HUVEC cells assessed as cell viability at 30 to 60 nM measured after 6 hrs by MTT assay relative to control; assay type: toxicity, cell-based; conditions: dose 30-60 nM, read-out: Activity
[25] = tested on: MDA-MB-231; test: Antitumor activity against human MDA-MB-231 cells xenografted in BALB/c nude mouse model assessed as tumor weight reduction at 15 mg/kg, ip measured after 14 days relative to control; assay type: functional; set-up: scale not given: the % may be the effect or the level left; conditions: time 14 day
[26] = Toxicity in Balb/C nude mouse assessed as drug tolerance at 15 mg/kg, ip measured upto 2 weeks; assay type: organism-based; conditions: in vivo, 336 h
[27] = tested on: HCT-116; test: Antiproliferative activity against human HCT-116 cells assessed as inhibition of cell growth measured after 48 hrs by MTT assay; assay type: functional, cell-based; conditions: HCT-116, 48 h
[28] = tested on: HeLa; test: Antiproliferative activity against human HeLa assessed as inhibition of cell growth measured after 48 hrs by MTT assay; assay type: functional, cell-based
[29] = Oral bioavailability in mouse at 15 mg/kg measured upto 24 hrs by LC-MS/MS analysis; assay type: ADME, organism-based; conditions: in vivo
[30] = AUC (0 to t) in mouse at 3 mg/kg, iv measured upto 24 hrs by LC-MS/MS analysis; assay type: ADME, organism-based; conditions: in vivo
[31] = Toxicity in Balb/C nude mouse xenografted with A549/Taxol assessed as effect on heart at 15 mg/kg, ip measured after 14 days by H and E staining based analysis; assay type: organism-based, A549/TR; conditions: in vivo, 336 h, time 14 day
[32] = Toxicity in Balb/C nude mouse xenografted with A549/Taxol assessed as changes in blood routine parameters at 15 mg/kg, ip measured after 14 days by biochemical assay; assay type: organism-based, A549/TR; conditions: in vivo, 336 h, time 14 day
[33] = Antiproliferative activity against human CDDP-resistant A549 cell assessed as inhibition of cell growth measured after 48 hrs by MTT assay; assay type: functional, cell-based
[34] = Resistance index, ratio of IC50 for antiproliferative activity against cisplatin resistant human A2780/CDDP cells to IC50 for antiproliferative activity against human A2780 cells; assay type: functional
[35] = tested on: MCF7; test: Effect on katanin p60 protein level in katanin knockdown human MCF7 cells measured after 48 to 72 hrs by immunoblot analysis; assay type: functional, cell-based; conditions: time 48-72 hrs
[36] = target: Tubulin (Homo sapiens) (UniProt P68371+Q9H4B7+P0DPH7+P68366+Q13509+Q71U36+P04350+Q3ZCM7+P07437+P68363+Q9BQE3+Q6PEY2+Q13885+Q9BVA1+Q9BUF5); test: Inhibition of microtubule assembly in human MCF7 cells assessed as decrease in density at 1 to 10 nM incubated for 24 hrs by immunofluorescence assay; assay type: cell-based; conditions: dose 1-10 nM
[37] = Stability in mouse plasma assessed as half life at 1 uM measured upto 120 mins by LC-MS/MS analysis; assay type: ADME, cell-free
[38] = Toxicity in Balb/C nude mouse assessed as abnormalities in heart at 7.5 to 15 mg/kg, ip measured after 14 days by H and E staining based analysis; assay type: organism-based; conditions: in vivo, 336 h, dose 7.5-15 mg/kg, time 14 day

**Q.** Which MRT inf [1] does the source give for `COc1cc(-n2cnc3ccc(-c4ccc(C)c(N)c4)nc32)cc(OC)c1OC` here?
**A.** 2.47 h

**Q.** What about the inhibition [2] of the same compound?
**A.** Active

**Q.** And the AUC(0-t) at 24 h [3]?
**A.** 1240 ng·h/mL

**Q.** What about the Activity [4] of the same compound?
**A.** Non-Toxic

**Q.** And the Activity [5]?
**A.** Non-Toxic

**Q.** What about the Activity [6] of the same compound?
**A.** 100%

**Q.** What about the Activity [7] of the same compound?
**A.** Dose-Dependent Effect

**Q.** What about the pIC50 [8] of the same compound?
**A.** 9.00

**Q.** And the Activity [9]?
**A.** 16.7%

**Q.** And the MRT last at 24 h [10]?
**A.** 1.83 h

**Q.** And the solubility [11]?
**A.** 30 µg/mL (≈ 76.8 µM)

**Q.** What about the Activity [12] of the same compound?
**A.** Non-Toxic

**Q.** And the Activity [13]?
**A.** Active

**Q.** What about the survival at 336 h [14] of the same compound?
**A.** 0%

**Q.** What about the pIC50 [15] of the same compound?
**A.** 9.10

**Q.** And the Cmax [16]?
**A.** 1650 ng/mL

**Q.** And the pIC50 [17]?
**A.** 8.38

**Q.** And the “Ratio IC50” value [18]?
**A.** 1.54

**Q.** What about the Activity [19] of the same compound?
**A.** 32.55%

**Q.** And the Activity [20]?
**A.** Active

**Q.** What about the Activity [21] of the same compound?
**A.** Non-Toxic

**Q.** What about the half-life [22] of the same compound?
**A.** 1.92 h

**Q.** And the Activity [23]?
**A.** Non-Toxic

**Q.** And the viability at 6 h, 0.06 µM [24]?
**A.** > 90%

**Q.** What about the Activity [25] of the same compound?
**A.** 84%

**Q.** What about the Activity [26] of the same compound?
**A.** Non-Toxic

**Q.** What about the pIC50 [27] of the same compound?
**A.** 8.52

**Q.** What about the pIC50 [28] of the same compound?
**A.** 9.05

**Q.** And the bioavailability [29]?
**A.** 40%

**Q.** And the AUC(0-t) at 24 h [30]?
**A.** 666 ng·h/mL

**Q.** And the Activity [31]?
**A.** Non-Toxic

**Q.** And the Activity [32]?
**A.** Toxic

**Q.** What about the pIC50 [33] of the same compound?
**A.** 8.70

**Q.** And the “Ratio IC50” value [34]?
**A.** 1.35

**Q.** What about the Activity [35] of the same compound?
**A.** inactive

**Q.** And the inhibition [36]?
**A.** Active

**Q.** What about the half-life at 1 µM [37] of the same compound?
**A.** 39 h

**Q.** And the Activity [38]?
**A.** Non-Toxic
